In patent US20250134889A1, “TARGETING IRE1 KINASE AND FMRP FOR PROPHYLAXIS, MANAGEMENT AND TREATMENT OF ATHEROSCLEROSIS” (CEDARS-SINAI MEDICAL CENTER, priority 2022, published 2025):

What was measured:
macrophages = assay: Cholesterol uptake in macrophages (fluorescently labeled cholesterol); type: cell-based, mouse; details: AMG-18 10 μM 1 hour pre-treatment, labeled cholesterol 4 hours
BMDM = assay: Cholesterol efflux assay; type: cell-based, mouse; details: AMG-18 5 μM 1 hour pre-treatment; APOA1 25 μg/ml or HDL 50 μg/ml acceptors, 6 hours
Procedure: FIGS. 2A-2M depict that FMRP deficiency enhances RCT while reducing foam cell formation in vivo. (Data are mean±SEM. Unpaired t-test with Welch's correction. * P≤0.05, ** P≤0.01, *** P≤0.001.) • 2A. Fmr1^+/+ and Fmr1^−/− mice were injected with AAV_PCSK9 and fed with 16 weeks of WD. Residential PM were stained with Oil Red O (ORO) and imaged (n=7; Scale bar=50 μm). • 2B. Apoe-/mice were fed with WD (12 weeks) and injected with vehicle (DMSO) or AMG-18 (30 mg/kg/day) in the last 4 weeks of WD. Residential PM were stained with ORO and imaged (n=5; Scale bar=50 μm). • 2C-2E. […] Macrophages were pre-loaded with fluorescently labeled cholesterol (16 hours) followed by incubation in efflux medium including APOA1 (25 μg/ml) or HDL (50 μg/ml) as acceptors for 6 hours. % Efflux was calculated as cholesterol signal in medium/cholesterol signal in medium and cell: Cholesterol efflux in (2F) Fmr1+/+ and Fmr1^−/− BMDM (n=4) and in (2G) BMDM that were pre-treated either with DMSO or AMG-18 (5 μM; 1 hour) (n=4). • 2H-2K. […] Protein lysates from macrophages used in FIG. 2C were analyzed by western blotting using specific antibodies for FMRP and β-Actin. • 2M. […]

PM = assay: In vivo efferocytosis; parameters: species or system mouse; details: C57BL/6, AMG-18 30 mg/kg 8 hours, CFSE-labeled ACs i.p. 1.5 hours
From the text: FIGS. 3A-3G depict that FMRP-deficiency increases efferocytosis in vivo. (For all images scale bar=50 μm; Red: Macrophages, Green: AC/AC-1, Violet: AC-2. Data are mean±SEM. Unpaired t-test with Welch's correction. * P≤0.05, ** P≤0.01, *** P≤0.001.) • 3A-3E. In vitro and in vivo efferocytosis experiments, where percentage of macrophages F4/80^+ (red) that ingested apoptotic cells (AC) labeled with carboxyfluorescein succinimidyl ester (CFSE)^+ (green) were reported as % efferocytosis. • 3A. BMDMs were transfected with Fmr1- or control-siRNA and incubated CFSE-labeled AC for the indicated hours (n=4). • 3B. Fmr1^+/+ and Fmr1^−/− BMDMs were treated with PA (500 μM) for 6 hours and then incubated with CFSE-labeled ACs for 4 hours (n=4). • 3C. Fmr1^+/+ and Fmr1^−/− mice were fed WD (16 weeks) and injected intraperitoneally with CFSE-labeled AC (1.5 hours), followed by PM elicitation (n=4-5). • 3D. BMDM were pre-treated either with vehicle (DMSO) or AMG-18 (5 μM) for 1 hour then incubated with CFSE-labeled ACs for 4 hours (n=4). • 3E. […] In vitro continuous efferocytosis experiments, where macrophages were stained for F4/80^+ (red), AC were labeled with CFSE (AC-1; green) or Violet (AC2; violet). % continuous efferocytosis was determined by the ratio of F4/80^+, CFSE^+ and Violet^+ (triple positive) cells to total F4/80^+/+ and CFSE^+ (double positive) cells. • 3F. […]

Compound: Cc1ccc2c(NS(=O)(=O)c3ccccc3Cl)cccc2c1Oc1ncccc1-c1ccnc(N[C@H]2CCCNC2)n1 [AMG-18]
- cholesterol uptake (macrophages): neither FMRP knock down nor IRE1 kinase inhibition altered
- cholesterol efflux (BMDM): enhanced
- efferocytosis of ACs by PM in vivo (PM): induced
